In US20030235916A1, “Novel methods for the delivery of polynucleotides to cells” (priority 2002, published 2003):
d = 2'-deoxy (DNA); r = 2'-OH (RNA)

Tests used:
[1] = test system: rhodamine labeled PCILuc DNA (pDNA); test: Rhodamine labeled DNA condensation with cationic surfactants (fluorescence quenching), Example 19; format: physicochemical
Method: (§1) PCILuc DNA (pDNA) [Zhang et al. 1997] was modified to a level of 1 rhodamine per 100 bases using Mirus' Label IT® Rhodamine kit (Rhodamine Containing DNA Labeling Reagent, Mirus Corporation). The modified pDNA (10 μg) was mixed with pDNA that was not labeled (90 μg) in water and diluted to a final concentration of 1 μg/μL with water. The modified pDNA/pDNA mixture (5 μg) was diluted with water to a final volume of 500 μL. Different amounts of CTAB were added to the solution and the fluorescence intensity of the solution was measured using a Cary Eclipse Fluorescence Spectrophotometer (ex=555, em=585, Varian, Inc.). Trubetskoy et al have shown that rhodamine labeled pDNA undergoes fluorescence quenching as the pDNA is condensed [Trubetskoy, 1999].
as §1, with “It®” for “IT®”, “dodecylamine hydrochloride” for “CTAB”

[2] = test system: luciferase expression (pCI Luc / pCI Ren) in liver of ICR mice; test: HP tail vein dual luciferase: siRNA delivery (Example 77); format: in vivo; settings: hydrophobic siRNA
Method: HP Tail Vein Dual Luciferase: siRNA delivery Five complexes were prepared as follows:
Tail vein injections of 1.0 mL per 10 g body weight (˜2.5 ml) were preformed on ICR mice (n=2) using a 30 gauge, 0.5 inch needle. Injections were done manually with injection times of 4-5 sec [Zhang et al. 1999; Liu et al. 1999]. One day after injection, the livers were harvested and homogenized in lysis buffer (0.1% Triton X-100, 0.1 M K-phosphate, 1 mM DTT, pH 7.8). Insoluble material was cleared by centrifugation and 10 μl of the cellular extract or extract diluted 10× was analyzed for luciferase activity as previously reported [Wolffetal 1990].

CCCCCCCCCCCCCCCC[N+](C)(C)C.[Br-] [CTAB, cetyltrimethylammonium bromide, reference compound]
surfactant concentration at which the pDNA is condensed ([1]; 5 μg rhodamine pDNA mixture in 500 μL water): 0.33 mM
Fluor Int ([1]; N/P 0.4, 2 μg CTAB, 0.011 mM CTAB, 5 μg pDNA in 500 μL water, ex=555, em=585): 201.540
Fluor Int ([1]; N/P 0.7, 4 μg CTAB, 0.022 mM CTAB): 159.277
Fluor Int ([1]; N/P 1.1, 6 μg CTAB, 0.033 mM CTAB): 85.253
Fluor Int ([1]; N/P 1.4, 8 μg CTAB, 0.044 mM CTAB): 81.625
Fluor Int ([1]; N/P 1.8, 10 μg CTAB, 0.055 mM CTAB): 78.471
Fluor Int ([1]; N/P 2.2, 12 μg CTAB, 0.066 mM CTAB): 74.722
Fluor Int ([1]; N/P 2.5, 14 μg CTAB, 0.077 mM CTAB): 67.267
Fluor Int ([1]; N/P 2.9, 16 μg CTAB, 0.088 mM CTAB): 62.799

CCCCCCCCCCCCN.Cl [NC12, dodecylamine hydrochloride]
Fluor Int ([1]; N/P 0.6, 2 μg NC12, 0.018 mM NC12, 5 μg pDNA in 500 μL water, ex=555, em=585): 183.656
Fluor Int ([1]; N/P 1.2, 4 μg NC12, 0.036 mM NC12): 106.095
Fluor Int ([1]; N/P 1.8, 6 μg NC12, 0.054 mM NC12): 95.586
Fluor Int ([1]; N/P 2.4, 8 μg NC12, 0.072 mM NC12): 86.119
Fluor Int ([1]; N/P 3.0, 10 μg NC12, 0.090 mM NC12): 77.670
Fluor Int ([1]; N/P 3.6, 12 μg NC12, 0.108 mM NC12): 68.208
Fluor Int ([1]; N/P 4.2, 14 μg NC12, 0.126 mM NC12): 62.115
Fluor Int ([1]; N/P 4.8, 16 μg NC12, 0.144 mM NC12): 60.158
Fluor Int ([1]; N/P 5.4, 18 μg NC12, 0.162 mM NC12): 53.467
Fluor Int ([1]; N/P 6.0, 20 μg NC12, 0.180 mM NC12): 46.790
Fluor Int ([1]; N/P 6.5, 22 μg NC12, 0.198 mM NC12): 43.375
Fluor Int ([1]; N/P 7.1, 24 μg NC12, 0.216 mM NC12): 45.000

GL3-153: siRNA duplex, SEQ ID 12 and its compliment SEQ ID 13, Dharmacon (sense CUUACGCUGAGUACUUCGATT; antisense UCGAAGUACUCAGCGUAAGTT; sugars from the 5' end r19 d2, backbone not given here; listed as Photinus pyralis)
inhibition of luciferase expression [2]: inhibits luciferase expression
